# Assay results: patent publication US7300918B2, “Method of producing vaccines from protein signal oligopeptides” (priority 1994, dated 2007)
# “And” between values parts separate entries of the source, which are not always exact repeats. Equal values may be shown once.
# Tested on: Hep G2 cells
# Experiment: Cholesterol measurement in Hep G2 cells exposed to HMG CoA Reductase peptides
# Assay type: cell-based, human
# Conditions: 24 hrs; for Cholesterol Content Cell / Cholesterol Content Media: triplicate; for Total Cholesterol: cell + media
# From the text: Cholesterol Measurement in Hep G2 Cells Exposed to HMG CoA Reductase Peptides:
# A. Selection of therapeutic oligopeptides for these expenments • i. The peptides were selected according to the method described herein. In brief, 6 oligopeptides corresponding to the hydrophilic amino acid maxima of human hydroxy-methyl-glutaryl-CoA-reductase were selected according to the maximum hydrophilicity determining algorithm described herein. The following sequences were selected. • I. N-SQDEVREN-C (SEQ ID NO:42) • II. N-ELSRESREGR-C (SEQ ID NO:44) • III. N-RVLEEEENK-C (SEQ ID NO:46) • IV. N-QKCDSVEE-C (SEQ ID NO:56) • V. N-EETGINRERKVE-C (SEQ ID NO:60) • VI. N-EPEIELPREPRPNEE-C (SEQ ID NO:64)
# B. Materials and methods • i. Hep G2 cells were seeded into six-well dishes at 30,0000 cells/well in MEM-supplemented media with 10% FBS. Cells were grown to near confluency and exposed to • I. media alone • II. Mevastatin 5ΦMol (Cholestrol-lowering Statin drug) and, • III. HMG CoA Reductase peptides at 1, 10 and 100 ΦMol. • ii. All treatments were carried out in triplicate. After 24 hrs the media was removed and saved. • iii. The cells were washed with 1 ml of PBS and combined with the media. The cells were harvested with 1 ml of 0.1 N NaOH. • iv. Samples, both media and cells, were saponified with 0.5 ml 50% KOH, 3 ml ethanol, separately at 80EC for 2 hrs. • v. After cooling, the samples were extracted twice with petroleum ether and washed with NaOH. • vi. The samples were the dried under nitrogen and suspended in 200 Φl ethanol. • vii. 50 Φl of this suspension was used for determination of cholesterol. Cholesterol was determined in the samples and standards using colorimetric assay (Sigma Kit). • viii. Protein was determined by Lowry's method and the results were expressed as Φgm cholesterol/mg protein. C. Results • i.
Compound,Cholesterol Lowering in % of Control (5 ΦM),Cholesterol Content Cell (5 ΦM),Cholesterol Content Media (5 ΦM),Total Cholesterol (5 ΦM),Cholesterol Lowering in % of Control (1 ΦM),Cholesterol Content Cell (1 ΦM),Cholesterol Content Media (1 ΦM),Cholesterol Lowering in % of Control (10 ΦM),Cholesterol Content Cell (10 ΦM),Cholesterol Content Media (10 ΦM),Cholesterol Lowering in % of Control (100 ΦM),Cholesterol Content Cell (100 ΦM),Cholesterol Content Media (100 ΦM),Total Cholesterol (1 ΦM),Total Cholesterol (10 ΦM),Total Cholesterol (100 ΦM)
"CC[C@H](C)C(=O)O[C@H]1CCC=C2C=C[C@H](C)[C@H](CC[C@@H]3C[C@@H](O)CC(=O)O3)[C@H]21 [Mevastatin, reference compound]",19.0% and 18.0%,125.0 ± 4.6 Φ gm/mg protein and 124.4 ± 4.4 Φ gm/mg protein,37.5 ± 3.0 Φ gm/mg protein and 57.5 ± 5.2 Φ gm/mg protein,162.6 ± 7.6 Φ gm/mg protein and 182.0 ± 7.0 Φ gm/mg protein,,,,,,,,,,,,
"N-EETGINRERKVE-C [Peptide 5, oligopeptide corresponding to a hydrophilic amino acid maximum of human hydroxy-methyl-glutaryl-CoA-reductase]",,,,,1.5%,140.7 ± 8.6 Φ gm/mg protein,56.8 ± 1.0 Φ gm/mg protein,0.0%,149.0 ± 4.4 Φ gm/mg protein,50.7 ± 1.0 Φ gm/mg protein,0.0%,161.7 ± 23.5 Φ gm/mg protein,48.0 ± 1.6 Φ gm/mg protein,197.0 ± 9.2 Φ gm/mg protein,200.0 ± 5.0 Φ gm/mg protein,210.0 ± 25.0 Φ gm/mg protein
"N-ELSRESREGR-C [Peptide 2, oligopeptide corresponding to a hydrophilic amino acid maximum of human hydroxy-methyl-glutaryl-CoA-reductase]",,,,,29.0%,94.0 ± 8.3 Φ gm/mg protein,64.3 ± 4.2 Φ gm/mg protein,33.0%,85.0 ± 8.4 Φ gm/mg protein,63.7 ± 9.5 Φ gm/mg protein,34.0%,86.0 ± 4.7 Φ gm/mg protein,59.0 ± 6.0 Φ gm/mg protein,158.3 ± 6.3 Φ gm/mg protein,148.6 ± 11.8 Φ gm/mg protein,146.9 ± 8.8 Φ gm/mg protein
"N-EPEIELPREPRPNEE-C [Peptide 6, oligopeptide corresponding to a hydrophilic amino acid maximum of human hydroxy-methyl-glutaryl-CoA-reductase]",,,,,4.0%,144.3 ± 7.5 Φ gm/mg protein,47.4 ± 0.5 Φ gm/mg protein,8.0%,136.0 ± 12.2 Φ gm/mg protein,48.0 ± 3.4 Φ gm/mg protein,9.0%,132.0 ± 4.4 Φ gm/mg protein,50.4 ± 1.0 Φ gm/mg protein,192.0 ± 8.0 Φ gm/mg protein,184.0 ± 8.4 Φ gm/mg protein,182.4 ± 4.8 Φ gm/mg protein
"N-QKCDSVEE-C [Peptide 4, oligopeptide corresponding to a hydrophilic amino acid maximum of human hydroxy-methyl-glutaryl-CoA-reductase]",,,,,8.0%,134.7 ± 3.2 Φ gm/mg protein,50.4 ± 2.5 Φ gm/mg protein,10.0%,126.1 ± 4.2 Φ gm/mg protein,49.0 ± 1.0 Φ gm/mg protein,9.0%,127.7 ± 9.3 Φ gm/mg protein,53.8 ± 0.5 Φ gm/mg protein,184.3 ± 5.5 Φ gm/mg protein,175.2 ± 3.8 Φ gm/mg protein,181.7 ± 9.3 Φ gm/mg protein
"N-RVLEEEENK-C [Peptide 3, oligopeptide corresponding to a hydrophilic amino acid maximum of human hydroxy-methyl-glutaryl-CoA-reductase]",,,,,10.0%,137.3 ± 4.5 Φ gm/mg protein,64.0 ± 2.7 Φ gm/mg protein,10.0%,135.0 ± 4.5 Φ gm/mg protein,65.5 ± 4.7 Φ gm/mg protein,10.0%,135.0 ± 7.0 Φ gm/mg protein,65.5 ± 1.4 Φ gm/mg protein,201.3 ± 3.3 Φ gm/mg protein,200.7 ± 9.0 Φ gm/mg protein,200.5 ± 5.4 Φ gm/mg protein
"N-SQDEVREN-C [Peptide 1, oligopeptide corresponding to a hydrophilic amino acid maximum of human hydroxy-methyl-glutaryl-CoA-reductase]",,,,,28.0%,92.5 ± 4.7 Φ gm/mg protein,65.2 ± 4.0 Φ gm/mg protein,30.0%,88.6 ± 1.6 Φ gm/mg protein,60.6 ± 0.5 Φ gm/mg protein,30.0%,94.0 ± 4.0 Φ gm/mg protein,61.1 ± 2.4 Φ gm/mg protein,158.7 ± 5.6 Φ gm/mg protein,149.1 ± 2.0 Φ gm/mg protein,155.3 ± 6.4 Φ gm/mg protein
